From patent publication US7511065B2, “Mixed lineage kinase modulators” (Eli Lilly and Company, priority 2002, dated 2009)

Target: T1, MLK-7 (Homo sapiens, UniProt Q9NYL2)
T1 construct: GST; His tag; made in house; host or cells: Sf9 insect cells (baculovirus, pVL1392)
Test: In vitro assay of purified MLK-7 kinase activity (33P transfer from ATP to myelin basic protein)
Type: biochemical
Settings: recombinant GST-tagged MLK-7 at 1 nm, 30 uM ATP, 5 uM MBP substrate, 2 hours room temperature; read-out: MLK7 IC50
In short: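 GST/His-tagged MLK-7 from Sf9 (baculovirus), 1 nM, with 5 uM MBP, 30 uM ATP plus 33P, 5 mM MgCl2, 2 mM DTT, 4% DMSO in 44 mM HEPES pH 7.4; 2 h at room temperature, stopped with phosphoric acid. Filter-bound 33P counted; IC50 for reduced phosphate transfer, Ki via Cheng-Prusoff.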

T1 sequence (Q9NYL2 1-455 isoform Q9NYL2-2): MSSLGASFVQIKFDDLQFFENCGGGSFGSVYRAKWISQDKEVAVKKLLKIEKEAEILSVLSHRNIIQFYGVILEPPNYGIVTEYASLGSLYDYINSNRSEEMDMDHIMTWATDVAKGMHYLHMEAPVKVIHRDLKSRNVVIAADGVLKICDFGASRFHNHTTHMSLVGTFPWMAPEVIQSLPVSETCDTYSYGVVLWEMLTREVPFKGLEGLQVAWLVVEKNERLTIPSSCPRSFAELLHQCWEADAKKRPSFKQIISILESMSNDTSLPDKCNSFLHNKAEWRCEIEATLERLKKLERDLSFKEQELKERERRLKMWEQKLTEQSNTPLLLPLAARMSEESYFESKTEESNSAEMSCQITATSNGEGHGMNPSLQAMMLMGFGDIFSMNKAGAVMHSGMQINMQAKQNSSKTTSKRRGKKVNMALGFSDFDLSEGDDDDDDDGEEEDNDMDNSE

SMILES | IC50 [nM]
c1ccc(-c2nn3c(c2-c2ccnc4cc(N5CCCCC5)ccc24)CCC3)nc1 [Example 103, 7-Piperidin-1-yl-4-(2-pyridin-2-yl-5,6-dihydro-4H-pyrrolo[1,2-b]pyrazol-3-yl)-quinoline] | ≤ 1000
O=S1(=O)CCN(c2ccc3c(-c4c(-c5ccccn5)nn5c4CCC5)ccnc3c2)CC1 [Example 104, 7-(1,1-Dioxo-1λ^6-thiomorph-olin-4-yl)-4-(2-pyridin-2-yl-5,6-dihydro-4H-pyrrolo[1,2-b]pyrazol-3-yl)-quinoline] | ≤ 10000
COC(=O)CCc1ccc(-c2ccc3c(-c4c(-c5ccccn5)nn5c4CCC5)ccnc3c2)cc1 [Example 106, 3-{4-[4-(2-pyridin-2-yl-5,6-dihydro-4H-pyrrolo[1,2-b]pyrazol-3-yl-)quinolin-7-yl]phenyl}propionic Acid Methyl Ester] | ≤ 100
NC(=O)CCc1ccc(-c2ccc3c(-c4c(-c5ccccn5)nn5c4CCC5)ccnc3c2)cc1 [Example 107, 3-{4-[4-(2-Pyridin-2-yl-5,6-dihydro-4H-pyrrolo[1,2-b]pyrazol-3-yl)quinolin-7-yl]phenyl}propionamide] | ≤ 100
CN(C)CCOc1ccc(-c2ccc3c(-c4c(-c5ccccn5)nn5c4CCC5)ccnc3c2)cc1 [Example 108, Dimethyl-(2-{4-[4-(2-Pyridin-2-yl-5,6-dihydro-4H-pyrrolo[1,2-b]pyrazol-3-yl)quinolin-7-yl]phenoxy}ethyl)amine Ditrifluoroacetic Acid] | ≤ 100
c1ccc(-c2nn3c(c2-c2ccnc4cc(-c5ccc(OCCN6CCOCC6)cc5)ccc24)CCC3)nc1 [Example 109, 7-[4-(2-Morpholin-4-yl-ethoxy)phenyl]-4-(2-Pyridin-2-yl-5,6-dihydro-4H-pyrrolo[1,2-b]pyrazol-3-yl)quinoline Ditrifluoroacetic Acid] | ≤ 100
c1ccc(-c2nn3c(c2-c2ccnc4cc(-c5ccc(OCCN6CCCCC6)cc5)ccc24)CCC3)nc1 [Example 110, 7-[4-(2-Piperidin-1-yl-ethoxy)phenyl]-4-(2-Pyridin-2-yl-5,6-dihydro-4H-pyrrolo[1,2-b]pyrazol-3-yl)quinoline Ditrifluoroacetic Acid] | ≤ 100
c1ccc(-c2nn3c(c2-c2ccnc4cc(-c5ccc(OCCN6CCCC6)cc5)ccc24)CCC3)nc1 [Example 111, 4-(2-Pyridin-2-yl-5,6-dihydro-4H-pyrrolo[1,2-b]pyrazol-3-yl)-7-[4-(2-pyrrolidin-1-yl-ethoxy)phenyl] quinoline Ditrifluoroacetic Acid] | ≤ 100
c1ccc(-c2nn3c(c2-c2ccnc4cc(-c5ccc(OCCCN6CCCCC6)cc5)ccc24)CCC3)nc1 [Example 112, 7-[4-(3-Piperdin-1-yl-propoxy)phenyl]-4-(2-Pyridin-2-yl-5,6-dihydro-4H-pyrrolo[1,2-b]pyrazol-3-yl)quinoline Ditrifluoroacetic Acid] | ≤ 100
CN(C)CCCOc1ccc(-c2ccc3c(-c4c(-c5ccccn5)nn5c4CCC5)ccnc3c2)cc1 [Example 113, Dimethyl-(3-{4-[4-(2-Pyridin-2-yl-5,6-dihydro-4H-pyrrolo[1,2-b]pyrazol-3-yl)quinolin-7-yl]phenoxy}propyl)amine Ditrifluoroacetic Acid] | ≤ 100
c1ccc(-c2nn3c(c2-c2ccnc4cc(-c5ccc(OCCCN6CCOCC6)cc5)ccc24)CCC3)nc1 [Example 114, 7-[4-(3-Morpholin-4-yl-propoxy)phenyl]-4-(2-Pyridin-2-yl-5,6-dihydro-4H-pyrrolo[1,2-b]pyrazol-3-yl)quinoline Ditrifluoroacetic Acid] | ≤ 100
c1ccc(-c2nn3c(c2-c2ccnc4cc(-c5ccc(OCCCN6CCCC6)cc5)ccc24)CCC3)nc1 [Example 115, 4-(2-Pyridin-2-yl-5,6-dihydro-4H-pyrrolo[1,2-b]pyrazol-3-yl)-7-[4-(3-pyrrolidin-1-yl-propoxy)phenyl] quinoline Ditrifluoroacetic Acid] | ≤ 100
